Results on 19 molecules are retold here after patent publication US20250179059A1 (The Regents of the University of California, priority 2021, published 2025).

The structures appear in SMILES notation. Read-outs that look alike come from different tables or passages of the source. A value given as a limit tells only on which side of the number the result lay.

The target in experiment [1] is T1, human BRD4 bromodomain II (Homo sapiens, UniProt O60885).
T1 construct: human BRD4 bromodomain II [based on Genbank NM_058243, residues 349-460]; host or cells: E. coli
Briefly: Bromodomain binding assay (AlphaScreen), BRD4 BDII. The gist of the method:
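E. coli-expressed N-terminal His6-tagged human BRD4 BDII (residues 349-460) or BDI (residues 44-170) was preincubated 30 min at room temperature with compound (10-point, 3-fold) in pH 7.5 HEPES buffer, 1% DMSO. Displacement of biotinylated tetra-acetylated H4 1-21 peptide was read by AlphaScreen, and IC50 came from curve fitting.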

The test system of experiment [2] is human SKM-1 acute myeloid leukemia cells. In words: SKM-1 antiproliferation cell-based assay (ATPlite). The following applies: Homo sapiens. The gist of the method: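 Log-phase cells in RPMI 1640/15% FBS were seeded at 34722 cells/mL and exposed for 4 days to nine-concentration DMSO serial dilutions in triplicate. Viability was read as ATP luminescence (ATPlite 1step), and IC50 values came from variable-slope non-linear regression.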
For orientation: Cellular ATP, detected with luciferase, serves as a proxy for viable cell number.

Where [3] appears, read: AlphaScreen assay, Table C2, read-out: BRD4 BDII IC50.
Setting [4] is: SKM-1, 96 h, SKM-1 antiproliferation assay, 4 days, Table C2.
[5] abbreviates: BRD4 BDII AlphaScreen assay, read-out: BRD4 BD2 IC50.
Setting [6] is: SKM-1, SKM-1 antiproliferation assay.

For the molecule `CN1CCN(c2ccc(-c3cc(F)cc(-c4cc(N5CCNCC5)c5cn[nH]c5c4)c3O)cc2Cl)C1=O` [Example 458, 1-(3-chloro-5′-fluoro-2′-hydroxy-3′-(4-(piperazin-1-yl)-1H-indazol-6-yl)-[1,1′-biphenyl]-4-yl)-3-methylimidazolidin-2-one], the IC50 – broadly, the point on the concentration scale where inhibition reaches its midpoint – in experiment [1] (setting [3]) fell in the range of 1 to 10 nM. Also, the GI50 (usually the concentration giving 50% growth inhibition) in experiment [2] (setting [4]) fell in the range of 0.3 to 30 nM.

For the molecule `CC(C)Oc1cc(-c2cc(F)cc(-c3ccnc(N4CCNCC4)c3)c2O)cc(Cl)c1-n1ccn(C)c1=O` [Example 434, 1-(3-chloro-5′-fluoro-2′-hydroxy-5-isopropoxy-3′-(2-(piperazin-1-yl)pyridin-4-yl)-[1,1′-biphenyl]-4-yl)-3-methyl-1H-imidazol-2(3H)-one], the IC50 in experiment [1] (setting [3]) fell in the range of 10 to 100 nM. For the same molecule, in experiment [2] (setting [4]), the concentration for 50% growth inhibition (GI50) was in the range of 300 to 3000 nM.

Take `CN1CCN(c2ccc(-c3cccc(-c4cncc(N5CC6(CNC6)C5)c4)c3O)cc2F)C1=O` [Example 334, 1-(3′-(5-(2,6-diazaspiro[3.3]heptan-2-yl)pyridin-3-yl)-3-fluoro-2′-hydroxy-[1,1′-biphenyl]-4-yl)-3-methylimidazolidin-2-one]: in experiment [1] (setting [3]), the IC50 fell in the range of 10 to 100 nM. This molecule also returned a GI50 in experiment [2] (setting [4]) of 300 to 3000 nM.

Take `CNc1ncc(-c2cc(F)cc(-c3ccc(-n4ccn(C)c4=O)c(Cl)c3)c2O)cc1N1CCC2(CCCN2C(C)C)C1` (centres unmarked) [Example 970, 1-(3-chloro-5′-fluoro-2′-hydroxy-3′-(5-(1-isopropyl-1,7-diazaspiro[4.4]nonan-7-yl)-6-(methylamino)pyridin-3-yl)-[1,1′-biphenyl]-4-yl)-3-methyl-1H-imidazol-2(3H)-one]: the IC50 in experiment [1] (setting [5]) lay in the range of 1 to 10 nM. In experiment [2] (setting [6]), this molecule gave a GI50 of 0.3 to 30 nM.

For `CC(=O)Nc1ccc(-c2cccc(-c3ccnc(N4CC5(CNC5)C4)c3)c2O)cc1Cl` [Example 283, N-(3′-(2-(2,6-diazaspiro[3.3]heptan-2-yl)pyridin-4-yl)-3-chloro-2′-hydroxy-[1,1′-biphenyl]-4-yl)acetamide], in experiment [1] (setting [3]), the IC50 was in the range of 10 to 100 nM. In experiment [2] (setting [4]), this molecule displayed a GI50 of 300 to 3000 nM.

Consider `C[C@@H]1CN(c2cc(-c3cc(F)cc(-c4ccc(-n5ccn(C)c5=O)c(Cl)c4)c3O)ccn2)C[C@@H](C)O1` [Example 684, 1-(3-chloro-3′-(2-((2R,6R)-2,6-dimethylmorpholino)pyridin-4-yl)-5′-fluoro-2′-hydroxy-[1,1′-biphenyl]-4-yl)-3-methyl-1H-imidazol-2(3H)-one], for which the IC50 in experiment [1] (setting [3]) is 1 to 10 nM. Besides, in experiment [2] (setting [4]), the GI50 lay within 30 to 300 nM.

Consider `C#CCN1CCN(c2ccc(-c3cc(F)cc(-c4ccnc(N5CCNCC5)c4)c3O)cc2Cl)C1=O` [Example 367, 1-(3-chloro-5′-fluoro-2′-hydroxy-3′-(2-(piperazin-1-yl)pyridin-4-yl)-[1,1′-biphenyl]-4-yl)-3-(prop-2-yn-1-yl)imidazolidin-2-one], for which the IC50 in experiment [1] (setting [3]) is more than 100 nM. In experiment [2] (setting [4]), this molecule had a 50% growth inhibitory concentration (GI50) of 300 to 3000 nM.

As for `COc1ncc(-c2cc(F)cc(-c3ccc(-n4ccn(C)c4=O)c(Cl)c3)c2O)cc1N1CCCN(C(C)(C)C)CC1` [Example 853, 1-(3′-(5-(4-(tert-Butyl)-1,4-diazepan-1-yl)-6-methoxypyridin-3-yl)-3-chloro-5′-fluoro-2′-hydroxy-[1,1′-biphenyl]-4-yl)-3-methyl-1H-imidazol-2(3H)-one], in experiment [1] (setting [5]), the IC50 fell in the range of 0.01 to 1 nM. In addition, the concentration for 50% growth inhibition (GI50) in experiment [2] (setting [6]) fell in the range of 0.3 to 30 nM.

With `Cn1ccn(-c2ccc(-c3cc(F)cc(-c4cccc(N5CCN(C(C)(C)C)CC5)c4)c3O)cc2F)c1=O` [Example 945, 1-(3″-(4-(tert-butyl)piperazin-1-yl)-3,5′-difluoro-2′-hydroxy-[1,1′:3′,1″-terphenyl]-4-yl)-3-methyl-1H-imidazol-2(3H)-one], in experiment [1] (setting [5]), the IC50 lay in the range of 1 to 10 nM. The GI50 in experiment [2] (setting [6]) lay within 0.3 to 30 nM.

`[2H]C([2H])([2H])n1ccn(-c2ccc(-c3cc(F)cc(-c4ccnc(N5CC6(CNC6)C5)c4)c3O)cc2Cl)c1=O` [Example 492, 1-(3′-(2-(2,6-diazaspiro[3.3]heptan-2-yl)pyridin-4-yl)-3-chloro-5′-fluoro-2′-hydroxy-[1,1′-biphenyl]-4-yl)-3-deuteromethyl-1H-imidazol-2(3H)-one]: in experiment [1] (setting [3]), the IC50 is 1 to 10 nM. For the same molecule, the GI50 in experiment [2] (setting [4]) was 30 to 300 nM.

As for `CC(C)N1CCN(c2cncc(-c3cc(F)cc(-c4ccc(-n5ccn(C)c5=O)c(Cl)c4)c3O)c2)CC1` [Example 663, 1-(3-chloro-5′-fluoro-2′-hydroxy-3′-(5-(4-isopropylpiperazin-1-yl)pyridin-3-yl)-[1,1′-biphenyl]-4-yl)-3-methyl-1H-imidazol-2(3H)-one], the IC50 in experiment [1] (setting [3]) lay within 0.01 to 1 nM. For the same molecule, the GI50 in experiment [2] (setting [4]) was 0.3 to 30 nM.

As to `CC(=O)Nc1ccc(-c2cccc(-c3ccnc(N4CCC(O)CC4)c3)c2O)cc1F` [Example 272, N-(3-fluoro-2′-hydroxy-3′-(2-(4-hydroxypiperidin-1-yl)pyridin-4-yl)-[1,1′-biphenyl]-4-yl)acetamide], in experiment [1] (setting [3]), the IC50 was 10 to 100 nM. This molecule also came in with a GI50 in experiment [2] (setting [4]) of 300 to 3000 nM.

Consider `Cn1ccn(-c2ccc(-c3cc(F)cc(-c4ccc(C(F)(F)F)c(N5CCN(C(C)(C)C)CC5)c4)c3O)cc2Cl)c1=O` [Example 810, 1-(3″-(4-(tert-butyl)piperazin-1-yl)-3-chloro-5′-fluoro-2′-hydroxy-4″-(trifluoromethyl)-[1,1′:3′,1″-terphenyl]-4-yl)-3-methyl-1H-imidazol-2(3H)-one], for which, in experiment [1] (setting [3]), the IC50 is 1 to 10 nM. The molecule also came in with a GI50 in experiment [2] (setting [4]) of 30 to 300 nM.

Take `[2H]C([2H])([2H])n1ccn(-c2ccc(-c3cc(F)cc(-c4ccnc(N5CC[C@H](NC)C5)c4)c3O)cc2Cl)c1=O` [Example 466, (S)-1-(3-chloro-5′-fluoro-2′-hydroxy-3′-(2-(3-(methylamino)pyrrolidin-1-yl)pyridin-4-yl)-[1,1′-biphenyl]-4-yl)-3-(deuteromethyl)-1H-imidazol-2(3H)-one]: the IC50 in experiment [1] (setting [3]) lay in the range of 0.01 to 1 nM. Further, the GI50 in experiment [2] (setting [4]) lay in the range of 0.3 to 30 nM.

For `Cn1ccn(-c2ccc(-c3cc(C(F)(F)F)cc(-c4cccc(N5CCN(C(C)(C)C)CC5)c4)c3O)cc2Cl)c1=O` [Example 1025, 1-(3″-(4-(tert-butyl)piperazin-1-yl)-3-chloro-2′-hydroxy-5′-(trifluoromethyl)-[1,1′:3′,1″-terphenyl]-4-yl)-3-methyl-1H-imidazol-2(3H)-one], the IC50 in experiment [1] (setting [5]) is 1 to 10 nM. For the same molecule, in experiment [2] (setting [6]), the GI50 was 300 to 3000 nM.

As to `CC(=O)Nc1ccc(-c2cccc(-c3cccc(N4CC5CNC(C5)C4)c3)c2O)cc1F` (centres unmarked) [Example 206, N-(3″-(3,6-diazabicyclo[3.2.1]octan-3-yl)-3-fluoro-2′-hydroxy-[1,1′:3′,1″-terphenyl]-4-yl)acetamide], the IC50 in experiment [1] (setting [3]) is 1 to 10 nM. Also, the GI50 in experiment [2] (setting [4]) fell in the range of 30 to 300 nM.

Regarding `Cc1cc(-c2cc(-c3cn[nH]c3)nc(N3CCNCC3)c2)c(O)c(-c2ccc(-n3ccn(C)c3=O)c(Cl)c2)c1` [Example 566], the IC50 in experiment [1] (setting [3]) was 0.01 to 1 nM. In addition, the GI50 in experiment [2] (setting [4]) is 0.3 to 30 nM.

Consider `Cn1ccn(-c2ccc(-c3cc(F)cc(-c4cccc(N5CC[C@@](C)(N)C5)c4)c3O)cc2Cl)c1=O` [Example 758, (R)-1-(3″-(3-amino-3-methylpyrrolidin-1-yl)-3-chloro-5′-fluoro-2′-hydroxy-[1,1′:3′,1″-terphenyl]-4-yl)-3-methyl-1H-imidazol-2(3H)-one], for which the IC50 in experiment [1] (setting [3]) fell in the range of 0.01 to 1 nM. The GI50 in experiment [2] (setting [4]) is 0.3 to 30 nM.

For `Cn1ccn(-c2ccc(-c3cnnc(-c4cccc(N5CCN(C(C)(C)C)CC5)c4)c3O)cc2Cl)c1=O` [Example 1020, 1-(4-(6-(3-(4-(tert-Butyl)piperazin-1-yl)phenyl)-5-hydroxypyridazin-4-yl)-2-chlorophenyl)-3-methyl-1H-imidazol-2(3H)-one], the IC50 in experiment [1] (setting [5]) was more than 100 nM. Also, the GI50 in experiment [2] (setting [6]) is 300 to 3000 nM.
